Data set [1] relates to primary microglia. The data set can be described thus: Intracellular Aβ degradation by primary microglia. It counts as cell-based, murine. From the text:
FIG. 5 illustrates graphs showing RXR agonists stimulate Aβ degradation.
Given the ability of RXR activation to drive LXR target gene expression, we predicted that agonist treatment should promote the proteolytic degradation of Aβ by microglia. […] Aβ uptake was unaffected by either drug treatment.

The subject of data set [2] is microglia. As to the kind of experiment: Inhibition of RXR mediated intracellular Aβ degradation by PPARγ or LXR inhibitors, microglia. It counts as cell-based. Conditions: inhibitor pretreatment 1.5 hrs, Bexarotene 24 hours, 2 ug/mL soluble Aβ 18 hours. From the text: (§1) FIG. 14 illustrates graphs showing RXR mediated intracellular Aβ degradation is prevented by inhibiting PPARγ or LXR.
(§2) To determine which heterodimer partners are involved in RXR activation driven Aβ intracellular degradation, we inhibited PPARγ and LXR by competitive inhibitors, TO and 22-s-Hydroxycholesterol, respectively. Aβ degradation mediated by either microglia (A) or astrocytes (B) is inhibited with either inhibitor to PPAR or LXR. Additionally, a co-treatment with both inhibitors reduces Aβ degradation further (FIG. 14).

The test system of data set [3] is astrocytes. The data set can be described thus: Inhibition of RXR mediated intracellular Aβ degradation by PPARγ or LXR inhibitors, astrocytes. Format: cell-based. Conditions: inhibitor pretreatment 1.5 hrs, Bexarotene 24 hours, 2 ug/mL soluble Aβ 18 hours.
Description: as §1, §2

Data set [4] relates to ApoE knock out microglia. The data set can be described thus: Intracellular Aβ degradation in ApoE knock out microglia. Format: cell-based, murine. The conditions noted are these: without ApoE.
The test system of data set [5] is ApoE knock out astrocytes. As to the kind of experiment: Intracellular Aβ degradation in ApoE knock out astrocytes. Format: cell-based, murine. The conditions noted are these: without ApoE.
The conditions of data set [6]: extended periods in humans; cited from earlier work.
The conditions of data set [7]: therapeutic doses, FDA alert May 21, 2007; cited from earlier work.

The text below walks through data of patent publication US20140235676A1, “RXR AGONIST COMPOUNDS AND METHODS” (Case Western Reserve University, priority 2011, published 2014).

Each structure is given as a SMILES string.

In the case of `CC1=C(/C=C/C(C)=C\C=C\C(C)=C\C(=O)O)C(C)(C)CCC1` [9cisRA], the Aβ uptake entry in data set [1] is given as “unaffected”. For the same compound, the “intracellular Aβ levels” value in data set [1] (drug 24 hours then 18 hours with 2 μg/mL soluble Aβ) is on record as “dose-dependent reduction”.

Take `CC(C)CC[C@H](O)[C@@H](C)[C@H]1CC[C@H]2[C@@H]3CC=C4C[C@@H](O)CC[C@]4(C)[C@H]3CC[C@]12C` [22-s-Hydroxycholesterol]: the “Bexarotene driven intracellular Aβ degradation” value in data set [2] and in data set [3] was “inhibited” each time.

Consider `C=C(c1ccc(C(=O)O)cc1)c1cc2c(cc1C)C(C)(C)CCC2(C)C` [Bexarotene], for which the “intracellular Aβ degradation” value in data set [4] and in data set [5] was “no effect” each time. Further, the clinical safety profile result in data set [6] was “good safety profile”.

For `CN(CCOc1ccc(CC2SC(=O)NC2=O)cc1)c1ccccn1` (stereo not drawn) [rosiglitazone, 5-[4-[2-(N-methyl-N-(2-pyridyl)amino]ethoxy]benzyl]thiazolidine-2,4-dione], in data set [7], the “risk of death from all cardiovascular diseases” value is “even higher risk of death from all cardiovascular diseases” and the “risk of heart attack” value is “significantly increased risk of heart attack”.
